Where two headings read alike, the source gives them in different places. One block for each molecule: values may come before it.
Assays:
[1] = system: HIF PHD (HIF1 ODD-luc reporter); conditions: specific for HIF PHD; cited from earlier work
[2] = system: HIF PHD (HIF1 ODD-luc reporter); experiment: HIF1 ODD-luc reporter assay in SH-SY5Y cells; format: cell-based; conditions: for effect on HIF1 ODD-luc reporter activation induced by Compound 8a: agents applied in equal concentration; for effect on reporter activation by HIF PHD inhibitors of various nature: NAC up to millimolar concentrations
[3] = Potassium ferricyanide reduction; format: physicochemical; conditions: 1 mM agent, 1 mM potassium ferricyanide, 50 mM Tris-HCl buffer, pH 7.4
[4] = system: HIF-1 target genes (VEGF, HO-1), HIF1α, NQO-1; experiment: RT-PCR of HIF1 target genes in N2a cells; format: cell-based, mouse; conditions: 4 h
[5] = system: HIF1 and HIF2; conditions: cited from earlier work
[6] = biological target: PHD2; conditions: ref 36 (FG-4592), ref 37 (IOX2); cited from earlier work
[7] = system: HIF PHD; conditions: cited from earlier work
[8] = system: HIF; conditions: cited from earlier work
[9] = 3 h incubation, physiological L-Asc (0.04–0.1 mM)
[10] = reporter activation by Compound 8a

SMILES: Oc1cccnc1NC(c1ccc(Cl)cc1)c1ccc2cccnc2c1O (stereo not drawn) [Compound 8, adaptaquin]
- EC50 [1]: ~2 µM

- reducing power (ferricyanide reduction kinetics), L-Asc vs D-Asc [3]: no difference in reduction kinetics
SMILES: O=C1O[C@H]([C@H](O)CO)C(O)=C1O [D-Asc, D-isoascorbic acid]
- effect on HIF1 ODD-luc reporter activation induced by Compound 8a ([2]; 3 h incubation): neither D-Asc nor NAC applied in the equal concentration cause any change
- effect on reporter activation by HIF PHD inhibitors of various nature [2]: minor effect, if any
- inhibition of HIF1 target gene activation ([4]; 100 μM co-treatment with 5 μM Compound 8a): under 10%

- EC50 ([2]; read-out: EC50 of reporter activation): 250 µM
SMILES: CCOC(=O)c1ccc(O)c(O)c1 [DHB, Ethyl 3,4-dihydroxybenzoate]
- suppressing effect of L-Asc on reporter activation induced by the inhibitor [2, 9]: very sensitive to L-Asc

SMILES: COC(=O)CNC(=O)C(=O)OC [DMOG, dimethyloxalyl glycine]
- suppressing effect of L-Asc on reporter activation induced by the inhibitor [2, 9]: pronounced for DMOG up to 250 μM
- suppressing effect of L-Asc on reporter activation induced by the inhibitor ([2]; higher DMOG concentrations (mM range), not shown): negligible
- working concentration resulting in HIF1 and HIF2 stabilization ([5]; after 2 h incubation): ca. 1 mM

SMILES: Cc1nc(C(=O)NCC(=O)O)c(O)c2ccc(Oc3ccccc3)cc12 [FG-4592]
- suppressing effect of L-Asc on reporter activation induced by the inhibitor [2, 9]: minimal
- concentration above which toxicity is seen ([2]; titration up to 0.6 mM, Supplementary Fig. S2): above 100 μM

SMILES: O=C(O)CNC(=O)c1c(O)c2ccccc2n(Cc2ccccc2)c1=O [IOX2]
- suppressing effect of L-Asc on reporter activation induced by the inhibitor [2, 9]: minimal
- inhibition constant, homogeneous enzyme assay with PHD2 [6]: nanomolar range

SMILES: O=C1O[C@H]([C@@H](O)CO)C(O)=C1O [L-Asc, L-ascorbic acid]
- effect on HIF1 ODD-luc reporter activation induced by Compound 8a ([2]; 3 h incubation): potently suppresses
- L-Asc concentration at which suppression is already observed [2, 10]: 10 µM
- concentration above which L-Asc effect shows saturation [2, 10]: above 40 μM
- drop in magnitude of reporter activation with increase in L-Asc concentration [2, 10]: 2.5 fold
- increase in EC50 of Compound 8a with increase in L-Asc concentration [2, 10]: ca. 1.5 fold
- Km [7]: ~50 µM
- concentration giving the comparable suppressive effect on HIF stability [8]: 50 µM
- reducing power (ferricyanide reduction kinetics), L-Asc vs D-Asc [3]: no difference in reduction kinetics
- effect of L-Asc alone on expression of HIF1 target genes ([4]; 100 μM): no changes
- L-Asc effect on HIF stabilization induced by 1 mM monomethyloxalylglycine ([5]; immunoblotting): absence of L-Asc effect

SMILES: CC(=O)N[C@@H](CS)C(=O)O [NAC, N-acetylcysteine]
- effect on HIF1 ODD-luc reporter activation induced by Compound 8a ([2]; 3 h incubation): neither D-Asc nor NAC applied in the equal concentration cause any change
- suppressing effect on reporter activation ([2]; NAC up to 1 mM, either drug, not shown): no suppressing effect
- effect on reporter activation by HIF PHD inhibitors of various nature [2]: no effect
